Measurements taken from ChEMBL document CHEMBL1124601, “Bifunctional antitumor compounds: synthesis and characterization of a Au(III)-streptonigrin complex with thiol-modulating properties” (J Med Chem, 1989).
In brackets after ≈: the same amount, converted by molar mass.

What was measured:
P388 [1] = experiment: In vitro concentration to inhibit the growth of P-388 leukemia cells; type: functional, cell-based; settings: Mus musculus
[2] = The dissociation constant at pH 3 using potentiometric titration in 100 uM of compound in 0.15 M KCl at 25 degrees Centigrade; type: ADME; settings: 0.15 M KCl solution
[3] = The dissociation constant at pH 8 using potentiometric titration in 100 uM of compound in 0.15 M KCl at 25 degree Centigrade; type: ADME; settings: 0.15 M KCl solution
[4] = The dissociation constant of the free compound in 1: 1 dioxane-water mixture.; type: ADME
P388 [5] = experiment: Compound concentration was evaluated in vitro to inhibit the growth of P-388 leukemia cells; type: functional; settings: Mus musculus, read-out: ID50 (the source's name)

| pKa at 100 µM [2] | pKa at 100 µM [3] | pKa [4] | IC50 (P388 [5]) [µg/mL] | Compound | ID50 (P388 [1]) [µg/mL] |
| --- | --- | --- | --- | --- | --- |
|  |  |  |  | 5-Amino-6-(7-amino-6-methoxy-5,8-dioxo-5,8-dihydro-quinolin-2-yl)-4-(2-hydroxy-3,4-dimethoxy-phenyl)-3-methyl-pyridine-2-carboxylic acid; compound with Gold | 0.05 |
| 4.7 | 6.6 | 6.5 | 0.05 (≈ 0.0987 µM) | COC1=C(N)C(=O)c2nc(-c3nc(C(=O)O)c(C)c(-c4ccc(OC)c(OC)c4O)c3N)ccc2C1=O [STREPTONIGRIN] |  |
